Data on 13 substances can be found in patent US20030166139A1 (priority 2001, published 2003).

The subject of the first data set is EDIM rotavirus. Set-up: species or system mice. Conditions: mouse, in vivo.
As for CAINAPANIQQFEHIVQLRRVLTTA [compound 1], the “% Protection” value is recorded as 0%.
For “FNPVILRPNNVEVEFLLNGQVINTYQARF [compound 4]”, the “% Protection” value is reported as 77%.
With “FSFPRVINSADGATTWYFNPVILRPNNVEV [compound 3]”, the “% Protection” value is given as 58%.
In the case of “HATVLTLRIDSAICESVLADASETMLANV [compound 8]”, the “% Protection” value is recorded as 51%.
For the substance “MTPAVTALFPNAQPFEHHATVGLTLRIDSA [compound 7]”, the “% Protection” value stood at 0%.
With “NGQVINTYQARFGTIVARNFDTIRLSFQLM [compound 5]”, the “% Protection” value was 0%.
Turning to PDAERFSFPRVINSADGA [compound 2], the “% Protection” value turned out to be 70%.
On the same count and under the same terms, in the case of “QEYAIPVGPVFPPGMNWTDLITNYSPSRED [compound 10]” it was 0%.
On to QS-21 [reference compound], for which the “% Protection from rotavirus shedding” value is reported as 43%.
Take RLSFQLMRPPNMTP [Peptide #6-14]: the “% Protection” value was found to be 98%.
In the case of RNFDTIRLSFQLMRPPNMTPAVTAL [Peptide #6], the “% Protection” value came out at 85%.
Still for that read-out and setting: under “TDLITNYSPSREDNLQRVFTVASIRSMLVK [compound 11]” stands 65%.
Turning to VLADASETMLANVTSVRQEYAI [compound 9], the “% Protection” value worked out at 0%.

The data set is the same for the next values; noted with them: mouse, in vivo, po.
Regarding QS-21 [reference compound], the “% Protection from rotavirus shedding” value worked out at 71%.

System in a further data set: not given
The note with it: in vivo; cited from earlier work.
As to QS-21 [reference compound], the “safety in human clinical trials” value is reported as “safe”.
